Assay results: patent US6982257B1, “Vitamin D3 derivative and its production method” (Teijin Limited, priority 1997, dated 2006)
Each block holds one compound with its values, some of them ahead of it.

How the values were obtained:
HL-60 cell = experiment: Differentiation induction of HL-60 cell, nitroblue tetrazolium (NBT) reduction activity; assay type: cell-based; settings: HL-60, 4 days culture
Text: Activities of Objective Compounds of the Present Invention on Differentiation Induction effect of HL-60 Cell
HL-60 cell was purchased from a cell bank (Japanese Cancer Research Resource Bank, Cell Number: JCRB 0085). The cell was stored as a frozen storage stock for preventing the change of cell characteristics attributable to successive cultivation. Before the initiation of experiments, the cell was defrosted, and successive cultivation was started for using the cell in the experiments. The cell which had been treated by successive culturing for about one to six months was used for the experiments. The successive culturing was carried out by centrifugally recovering cells from cultivation mixture in suspension culture, and diluting the collected cell concentrate in a fresh culture medium at a ratio of about 1/100 (1−2×10^5 cells/ml). As the culture medium, an RPMI-1640 medium containing 10% fetal bovine serum was used. Successively cultured cells were centrifugally collected, and they were dispersed in a culture medium at the concentration of 2×10^4 cells/ml. The dispersion was seeded into a 24-well culture petri dish at 1 ml/well. An ethanol solution (1×10^−9M to 1×10^−6M) of a compound of the present invention was added to this system at 1 μl/well. Further, regarding 1 α,25(OH)2D3, an ethanol solution of 1×10^−7 M to 1×10^−4 M was added at 1 μl/well, and for the control, ethanol was added at 1 μl/well. After culturing at 37° C. for 4 days under a 5% CO2 atmosphere, the cells were centrifugally collected. Nitroblue tetrazolium (NBT) reduction activity was determined as follows. That is, the collected cells were suspended in a fresh culture medium, and NBT and 12-O-tetradecanoylphorbol-13-acetate were added to the resultant suspension so that their concentrations became 0.1% and 100 nM, respectively. After the mixed suspension was incubated at 37° C. for 25 min, a cytospin sample was prepared. After air drying, it was stained with Kernechtrot, and the ratio of the positive cells of NBT reduction activity was determined under an optical microscope.
Activities of Compounds of the Present Invention on Nitroblue Tetrazolium

[1] = biological target: T1, bovine thymus 1α,25-dihydroxyvitamin D3 receptor (VDR) (Bos taurus, UniProt Q28037); settings: relative intensity ratio based on 100 for 1α,25-dihydroxyvitamin D3, from the concentration inhibiting [3H]1α,25-dihydroxyvitamin D3 (0.1 nM) binding by 50%
T1 sequence (Q28037 1-426): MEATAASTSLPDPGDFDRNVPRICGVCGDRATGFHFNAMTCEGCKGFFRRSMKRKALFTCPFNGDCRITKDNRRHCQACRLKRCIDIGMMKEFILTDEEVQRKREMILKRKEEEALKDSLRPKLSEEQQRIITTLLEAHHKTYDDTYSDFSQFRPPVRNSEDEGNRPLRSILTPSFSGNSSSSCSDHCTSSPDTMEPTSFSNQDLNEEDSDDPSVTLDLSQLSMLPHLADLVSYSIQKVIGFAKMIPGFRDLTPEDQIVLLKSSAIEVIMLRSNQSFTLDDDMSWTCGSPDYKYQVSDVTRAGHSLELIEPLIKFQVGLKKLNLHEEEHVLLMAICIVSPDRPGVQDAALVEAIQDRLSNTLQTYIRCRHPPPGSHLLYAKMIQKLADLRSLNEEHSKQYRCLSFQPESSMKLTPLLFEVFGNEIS
Procedure: The content (about 25 mg) of an ampule of a bovine thymus vitamin D receptor kit made by Yamasa Shoyu Ltd. was dissolved in 55 ml of a 0.05 M phosphoric acid-0.5 M potassium buffer solution (pH 7.4). Fifty μl of the ethanol solution of a compound to be tested and 500 μl of the receptor solution were pre-incubated at room temperature for 1 hr. […] To 500 μl of the supernatant, 9.5 ml of a liquid scintillation cocktail (ACS-II) was added, and the radioactivity of the resultant mixture was measured by a liquid scintillation counter.

Structure (SMILES): C=C1/C(=C\C=C2/CCC[C@]3(C)[C@@H]([C@H](C)CCCC(C)(C)O)CC[C@@H]23)C[C@@H](O)C[C@@H]1O [1α,25-(OH)2VD3, 1α,25-dihydroxyvitamin D3, reference compound]
Positive cells (%) of nitroblue tetrazolium reduction activity (HL-60 cell; concentration 10^−7 M): 96.5 ± 1.0% | Positive cells (%) of nitroblue tetrazolium reduction activity (HL-60 cell; concentration 10^−8 M): 86.1 ± 2.6% | Positive cells (%) of nitroblue tetrazolium reduction activity (HL-60 cell; concentration 10^−9 M): 36.8 ± 2.0% | Positive cells (%) of nitroblue tetrazolium reduction activity (HL-60 cell; concentration 10^−10 M): 4.3 ± 1.2%

Structure (SMILES): C=C1C(=CC=C2CCCC3(C)C2CCC3C(C)CCCC(C)(C)O)CC(O)C(C)C1O [Compound (1), (20R)-1β,25-dihydroxy-2β-methyl-3β vitamin D3, reference compound]
Binding Affinity for VDR [1]: 0.05

Structure (SMILES): C=C1C(=CC=C2CCCC3(C)C2CCC3C(C)CCCC(C)(C)O)CC(O)C(C)C1O [Compound (2), (20R)-1α,25-dihydroxy-2β-methyl-3α vitamin D3, reference compound]
Binding Affinity for VDR [1]: 0.3

Structure (SMILES): C=C1C(=CC=C2CCCC3(C)C2CCC3C(C)CCCC(C)(C)O)CC(O)C(C)C1O [Compound (3), (20R)-1β,25-dihydroxy-2β-methyl-3β vitamin D3, reference compound]
Binding Affinity for VDR [1]: 0.8

Structure (SMILES): C=C1C(=CC=C2CCCC3(C)C2CCC3C(C)CCCC(C)(C)O)CC(O)C(C)C1O [Compound (4), (20R)-1α,25-dihydroxy-2α-methyl-3β vitamin D3, reference compound]
Binding Affinity for VDR [1]: 400

Structure (SMILES): C=C1C(=CC=C2CCCC3(C)C2CCC3C(C)CCCC(C)(C)O)CC(O)C(C)C1O [Compound (5), (20R)-1β,25-dihydroxy-2α-methyl-3β vitamin D3, reference compound]
Binding Affinity for VDR [1]: 0.05

Structure (SMILES): C=C1C(=CC=C2CCCC3(C)C2CCC3C(C)CCCC(C)(C)O)CC(O)C(C)C1O [Compound (6), (20R)-1α,25-dihydroxy-2α-methyl-3α vitamin D3, reference compound]
Binding Affinity for VDR [1]: 4

Structure (SMILES): C=C1C(=CC=C2CCCC3(C)C2CCC3C(C)CCCC(C)(C)O)CC(O)C(C)C1O [Compound (7), (20R)-1β,25-dihydroxy-2α-methyl-3α vitamin D3, reference compound]
Binding Affinity for VDR [1]: 0.06

Structure (SMILES): C=C1C(=CC=C2CCCC3(C)C2CCC3C(C)CCCC(C)(C)O)CC(O)C(C)C1O [Compound (65), (20R)-1α,25-dihydroxy-2β-methyl-3β vitamin D3, reference compound]
Binding Affinity for VDR [1]: 13

Binding Affinity for VDR [1]: 160
Structure (SMILES): C=C1/C(=C\C=C2/CCC[C@]3(C)[C@@H]([C@@H](C)CCCC(C)(C)O)CC[C@@H]23)C[C@@H](O)[C@@H](C)[C@@H]1O [Compound (68), (20S)-1α,25-dihydroxy-2β-methyl-3β-vitamin D3]
Positive cells (%) of nitroblue tetrazolium reduction activity (HL-60 cell; concentration 10^−9 M): 95.7 ± 1.0% | Positive cells (%) of nitroblue tetrazolium reduction activity (HL-60 cell; concentration 10^−10 M): 57.7 ± 5.0% | Positive cells (%) of nitroblue tetrazolium reduction activity (HL-60 cell; concentration 10^−11 M): 2.8 ± 0.7% | Positive cells (%) of nitroblue tetrazolium reduction activity (HL-60 cell; concentration 10^−12 M): 1.7 ± 0.3%

Binding Affinity for VDR [1]: 0.03
Structure (SMILES): C=C1/C(=C\C=C2/CCC[C@]3(C)[C@@H]([C@@H](C)CCCC(C)(C)O)CC[C@@H]23)C[C@@H](O)[C@@H](C)[C@H]1O [Compound (69), (20S)-1β,25-dihydroxy-2β-methyl-3β-vitamin D3]

Binding Affinity for VDR [1]: 0.08
Structure (SMILES): C=C1/C(=C\C=C2/CCC[C@]3(C)[C@@H]([C@@H](C)CCCC(C)(C)O)CC[C@@H]23)C[C@H](O)[C@@H](C)[C@@H]1O [Compound (70), (20S)-1α,25-dihydroxy-2β-methyl-3α-vitamin D3]

Binding Affinity for VDR [1]: 7
Structure (SMILES): C=C1/C(=C\C=C2/CCC[C@]3(C)[C@@H]([C@@H](C)CCCC(C)(C)O)CC[C@@H]23)C[C@H](O)[C@@H](C)[C@H]1O [Compound (71), (20S)-1β,25-dihydroxy-2β-methyl-3α-vitamin D3]
Positive cells (%) of nitroblue tetrazolium reduction activity (HL-60 cell; concentration 10^−9 M): 40.5 ± 1.8% | Positive cells (%) of nitroblue tetrazolium reduction activity (HL-60 cell; concentration 10^−10 M): 2.0 ± 1.0% | Positive cells (%) of nitroblue tetrazolium reduction activity (HL-60 cell; concentration 10^−11 M): 1.8 ± 0.8% | Positive cells (%) of nitroblue tetrazolium reduction activity (HL-60 cell; concentration 10^−12 M): 1.5 ± 0.8%

Structure (SMILES): C=C1C(=CC=C2CCCC3(C)C2CCC3C(C)CCCC(C)(C)O)CC(O)C(C)C1O [Compound (72), (20S)-1α,25-dihydroxy-2α-methyl-3β-vitamin D3]
Positive cells (%) of nitroblue tetrazolium reduction activity (HL-60 cell; concentration 10^−9 M): 96.2 ± 2.0% | Positive cells (%) of nitroblue tetrazolium reduction activity (HL-60 cell; concentration 10^−10 M): 95.7 ± 2.3% | Positive cells (%) of nitroblue tetrazolium reduction activity (HL-60 cell; concentration 10^−11 M): 94.4 ± 1.8% | Positive cells (%) of nitroblue tetrazolium reduction activity (HL-60 cell; concentration 10^−12 M): 3.7 ± 0.8% | Binding Affinity for VDR [1]: 1200

Binding Affinity for VDR [1]: 0.05
Structure (SMILES): C=C1/C(=C\C=C2/CCC[C@]3(C)[C@@H]([C@@H](C)CCCC(C)(C)O)CC[C@@H]23)C[C@@H](O)[C@H](C)[C@H]1O [Compound (73), (20S)-1β,25-dihydroxy-2α-methyl-3β-vitamin D3]

Binding Affinity for VDR [1]: 17
Structure (SMILES): C=C1/C(=C\C=C2/CCC[C@]3(C)[C@@H]([C@@H](C)CCCC(C)(C)O)CC[C@@H]23)C[C@H](O)[C@H](C)[C@@H]1O [Compound (74), (20S)-1α,25-dihydroxy-2α-methyl-3α-vitamin D3]
Positive cells (%) of nitroblue tetrazolium reduction activity (HL-60 cell; concentration 10^−9 M): 96.4 ± 1.4% | Positive cells (%) of nitroblue tetrazolium reduction activity (HL-60 cell; concentration 10^−10 M): 16.7 ± 1.1% | Positive cells (%) of nitroblue tetrazolium reduction activity (HL-60 cell; concentration 10^−11 M): 17.0 ± 2.3% | Positive cells (%) of nitroblue tetrazolium reduction activity (HL-60 cell; concentration 10^−12 M): 6.4 ± 1.1%

Binding Affinity for VDR [1]: 0.03
Structure (SMILES): C=C1/C(=C\C=C2/CCC[C@]3(C)[C@@H]([C@@H](C)CCCC(C)(C)O)CC[C@@H]23)C[C@H](O)[C@H](C)[C@H]1O [Compound (75), (20S)-1β,25-dihydroxy-2α-methyl-3α-vitamin D3]
